Measurements from US11279733B2, “Peptide antibiotics” (priority 2017, dated 2022).
Converted amounts (≈) assume the structure as drawn. Where two headings read alike, the source gives them in different places. Positions of bridges follow the written chain, without caps; N, C: chain ends. Non-standard residues stand in square brackets, D forms with d. Residues, ends and D or L forms follow the SMILES beside them. *: point of attachment. Decanoyl(3R-OH) = CCCCCCC[C@@H](O)CC(=O)*; X11 = CCCCCCCNc1ccc(C(=O)*)cc1; dDab = NCC[C@@H](N)C(=O)O; Dab = NCC[C@H](N)C(=O)O; Dap = NC[C@H](N)C(=O)O

Experiments:
A. baumannii ATCC 19606 = system: A. baumannii ATCC 19606
In short: (§1)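 Mid-log cultures grown in Mueller Hinton broth at 37° C were tested by 2-fold broth microdilution at 5×10^5 CFU/mL final. Compounds were dissolved in water and tested over a final range of 32 to 0.015 μg/mL.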

A. baumannii GN_093 PmxR = system: A. baumannii GN_093 PmxR
In short: as §1

E. coli ATCC 25922 = system: E. coli ATCC 25922
In short: as §1

K. pneumoniae ATCC 13883 = system: K. pneumoniae ATCC 13883
In short: as §1

[1] = system: K. pneumoniae ATCC 700603, MDR
In short: as §1

[2] = system: K. pneumoniae ATCC BAA-2146, NDM-1 pos
In short: as §1

[3] = system: K. pneumoniae GN_102 PmxR
In short: as §1

[4] = system: K. pneumoniae GN_106, PmxR
In short: as §1

P. aeruginosa ATCC 27853 = system: P. aeruginosa ATCC 27853
In short: as §1

[5] = system: P. aeruginosa GN_043, PmxR; details: P. aeruginosa GN_043, PmxR
In short: as §1

[6] = system: P. aeruginosa GN_105, PmxR
In short: as §1

[7] = system: S. aureus ATCC 25923, MSSA
In short: as §1

[8] = Cytotoxicity, HK2 LDH assay; details: human
Experimental: Cytotoxicity of the synthesised peptides was evaluated by comparison with commercially available colistin (polymyxin E), polymyxin B (Sigma chemical Co., St. Louis, Mo., U.S.A.) and synthetic octapeptin C4 by conducting lactate dehydrogenase (LDH) assay. CC50 values calculated based on curve fitting of dose dependent inhibition of cell growth represented the cytotoxicity of the peptide. Human kidney 2 (HK2) cells were seeded as 2000 cells per well in a 384 well cell culture plate in a final volume of 20 μL in DMEM/F12 medium (Invitrogen #11330057), in which 10% of FBS was added. Cells were incubated for 24 hours at 37° C., 5% CO2 to allow cells to attach to the plates. Similar conditions were employed for HEK293 and HepG2 cytotoxicity assays.
Colistin and polymyxin B were tested from a range of 2 mM to 0.9 μM. 120 μL of the 1 mM stock solutions in water of each synthesised peptide were freeze-dried and processed for LDH assay. After freeze-dry procedure, the compounds were reconstituted into 600 μM solutions using culture media. All tested compounds were diluted from 600 μM to 0.27 μM in 3-fold dilutions. Then 20 μL of each dilution was added into 20 uL of culture medium in quadruplicate to reach the final concentrations. The cells were incubated with the compounds for 24 h at 37° C., 5% CO2. After the incubation, 5 μL of culture medium was added to 50 μL of LDH assay buffer and incubated for 1 h at room temperature. The absorbance was read at 450 nm using Polarstar. The data was then analysed by Prism software. […] Nephrotoxicity Assessment in Human Proximal Tubule Cells.

Row | SMILES | MIC P. aeruginosa GN_043, PmxR [5] [µg/mL] | CC50 at 24 h [8] [µM] | MIC A. baumannii ATCC 19606 (A. baumannii ATCC 19606; ATCC 19606) [µg/mL] | MIC A. baumannii GN_093 PmxR (A. baumannii GN_093 PmxR; GN 093 PmxR) [µg/mL] | MIC E. coli ATCC 25922 (E. coli ATCC 25922; ATCC 25922) [µg/mL] | MIC K. pneumoniae ATCC 13883 (K. pneumoniae ATCC 13883; ATCC 13883) [µg/mL] | MIC K. pneumoniae ATCC 700603, MDR ([1]; ATCC 700603) [µg/mL] | MIC K. pneumoniae ATCC BAA-2146, NDM-1 pos ([2]; ATCC BAA-2146) [µg/mL] | MIC K. pneumoniae GN_102 PmxR ([3]; GN 102 PmxR) [µg/mL] | MIC K. pneumoniae GN_106, PmxR ([4]; GN 106, PmxR) [µg/mL] | MIC P. aeruginosa ATCC 27853 (P. aeruginosa ATCC 27853; ATCC 27853) [µg/mL] | MIC P. aeruginosa GN_105, PmxR ([6]; GN 105, PmxR) [µg/mL] | MIC S. aureus ATCC 25923, MSSA ([7]; ATCC 25923) [µg/mL] | also measured
1 | CCCCCCC[C@@H](O)CC(=O)N[C@H](CCN)C(=O)N[C@H]1CCNC(=O)[C@H]([C@@H](C)O)NC(=O)[C@H](CN)NC(=O)[C@H](CCN)NC(=O)[C@H](CC(C)C)NC(=O)[C@@H](Cc2ccccc2)NC(=O)[C@H](CCN)NC1=O [compound 5386, 3(R)OH-nC9CO-D-Dab-cyc[L-Dab-L-Dab-D-Phe-L-Leu-L-Dab-L-Dap-L-Thr]] ({Decanoyl(3R-OH)}-[dDab][Dab][Dab][dF]L[Dab][Dap]T; lactam 2-C) | 1 (≈ 0.982 µM) | 154 |  |  |  |  |  |  |  |  |  |  |  | MIC A. baumannii ATCC 19606 (A. baumannii ATCC 19606; A. baumannii ATCC 19606): >32 µg/mL; MIC A. baumannii GN_093 PmxR (A. baumannii GN_093 PmxR; A. baumannii GN_093 PmxR): >32 µg/mL; MIC E. coli ATCC 25922 (E. coli ATCC 25922; E. coli ATCC 25922): 2 µg/mL (≈ 1.96 µM); MIC K. pneumoniae ATCC 13883 (K. pneumoniae ATCC 13883; K. pneumoniae ATCC 13883): 16 µg/mL (≈ 15.7 µM); MIC K. pneumoniae ATCC 700603, MDR ([1]; K. pneumoniae ATCC 700603, MDR): 2 µg/mL (≈ 1.96 µM); MIC K. pneumoniae ATCC BAA-2146, NDM-1 pos ([2]; K. pneumoniae ATCC BAA-2146, NDM-1 pos): 4 µg/mL (≈ 3.93 µM); MIC K. pneumoniae GN_102 PmxR ([3]; K. pneumoniae GN_102 PmxR): 32 µg/mL (≈ 31.4 µM); MIC K. pneumoniae GN_106, PmxR ([4]; K. pneumoniae GN_106, PmxR): >32 µg/mL; MIC P. aeruginosa ATCC 27853 (P. aeruginosa ATCC 27853; P. aeruginosa ATCC 27853): 4 µg/mL (≈ 3.93 µM); MIC P. aeruginosa GN_105, PmxR ([6]; P. aeruginosa GN_105, PmxR): 4 µg/mL (≈ 3.93 µM); MIC S. aureus ATCC 25923, MSSA ([7]; S. aureus ATCC 25923, MSSA): >32 µg/mL
2 | CCCCCCC[C@@H](O)CC(=O)N[C@H](CCN)C(=O)N[C@H]1CCNC(=O)[C@H]([C@@H](C)O)NC(=O)[C@H](CCN)NC(=O)[C@H](CCNC(=O)[C@@H](N)CCCNC(=N)N)NC(=O)[C@H](CC(C)C)NC(=O)[C@@H](Cc2ccccc2)NC(=O)[C@H](CCN)NC1=O [compound 6656, 3(R)OH-nC9CO-D-Dab-cyc[L-Dab-L-Dab-D-Phe-L-Leu-L-Dab(L-Arg)-L-Dab-L-Thr]] ({Decanoyl(3R-OH)}-[dDab][Dab][Dab][dF]L[Dab](Arg)[Dab]T; lactam 2-C) | 8 (≈ 6.73 µM) | > 300 | 16 (≈ 13.5 µM) | >32 | 2 (≈ 1.68 µM) | >32 | 4 (≈ 3.37 µM) | >32 | >32 | >32 | 2 (≈ 1.68 µM) | 16 (≈ 13.5 µM) | >32 | 
3 | CCCCCCCNc1ccc(C(=O)N[C@H](CCN)C(=O)N[C@H]2CCNC(=O)[C@H]([C@@H](C)O)NC(=O)[C@H](CCN)NC(=O)[C@H](CCN)NC(=O)[C@H](CC(C)C)NC(=O)[C@@H](Cc3ccccc3)NC(=O)[C@H](CCN)NC2=O)cc1 [compound 6403, 4(C7H15NH)PheCO-D-Dab-cyc[L-Dab-L-Dab-D-Phe-L-Leu-L-Dab-L-Dab-L-Thr]] (X11-[dDab][Dab][Dab][dF]L[Dab][Dab]T; lactam 2-C) | 32 (≈ 29.6 µM) | > 300 | >64 | >32 | >64 | >64 | >64 | >64 | >32 | >32 | 16 (≈ 14.8 µM) | >32 | >32 | 
4 | CCCCCCC[C@@H](O)CC(=O)N[C@H](Cc1c[nH]c2ccccc12)C(=O)N[C@H]1CCNC(=O)[C@H]([C@@H](C)O)NC(=O)[C@H](CCN)NC(=O)[C@H](CCN)NC(=O)[C@H](CC(C)C)NC(=O)[C@@H](Cc2ccccc2)NC(=O)[C@H](CCN)NC1=O [compound 6394, 3(R)OH-nC9CO-D-Trp-cyc[L-Dab-L-Dab-D-Phe-L-Leu-L-Dab-L-Dab-L-Thr]] ({Decanoyl(3R-OH)}-[dW][Dab][Dab][dF]L[Dab][Dab]T; lactam 2-C) | >32 | > 300 | >64 | >32 | >64 | >64 | >64 | >64 | >32 | >32 | 64 (≈ 57.2 µM) | >32 | >32 | 
